In US20110281896A1, “OPTICALLY PURE QUINAZOLINE COMPOUNDS” (Jiangsu Hansoh Pharmaceutical Co. Ltd, priority 2009, published 2011):

Columns and labels:
[1] = system: human lung cancer Calu-3 xenografts; assay: Effect on xenografts in nude mice with lung cancer Calu-3; assay type: in vivo, BALB/cA-nude mice; conditions: for Initial Tumor Volume (mm^3) D0: D0 = time of first administration (baseline); for Initial Tumor Volume (mm^3) D0 / Final Tumor Inhibition Rate (%) D16 / % T/C D16 / Relative Tumor Volume D16 / Final Tumor Volume (mm^3) D16 / The Recession/Group / inhibition of growth of human lung cancer Calu-3 (in words): PO QD × 17; for Initial Tumor Volume (mm^3) D0 / Final Tumor Inhibition Rate (%) D16 / % T/C D16 / Relative Tumor Volume D16 / Final Tumor Volume (mm^3) D16 / The Recession/Group: 146.5-146.7 mg/kg; for Initial Tumor Volume (mm^3) D0 / Relative Tumor Volume D16 / Final Tumor Volume (mm^3) D16: mean; for % T/C D16: C = mean tumor volume of drug, control group; for Final Tumor Volume (mm^3) D16: D16 = 17th day after administration; for The Recession/Group: number of mice per group of 6
Method: Effect of compound 97(±), compound 97, compound 110 and Lapatinib (positive control) on xenografts in nude mice with lung cancer Calu-3 Remark: “±” means the compound is racemic.
The purpose of the experiment is to evaluate and compare the effect of compound 97(±), compound 97, compound 110, Lapatinib on xenografts in nude mice with lung cancer Calu-3.
BALB/cA-nude mice, 6-7 weeks, ♀, purchased from ShangHai Slac laboratory animal Co., Ltd.
Calu-3 cells were injected subcutaneously into nude mice. Animals were divided into groups (d0) randomly after tumors have grown to 150-300 mm^3. Dosage and dosage regimen design can be seen in table 1. Tumors volume was measured 2-3 times per week. Mice were weighed and data were recorded. Calculation formula for tumor volume (V) is as below:
V=½×a×b^2, wherein, a and b represent length and width respectively.

MCF-7 = assay: Antitumor activity in vitro, SRB cell proliferation inhibition; assay type: cell-based; conditions: 72 h incubation, Logit method
Method: (§1) Evaluation of Antitumor Activity In Vitro
(§2) Cell Strains: A431; MCF-7
(§3) Experiment Design: Cells were incubated with different concentrations of compounds for 72 hours. The inhibition of cell proliferation by the compounds was evaluated by SRB, followed by calculation of the inhibition rate. Then, value of IC50 was calculated by using-Logit method base on the inhibition rate and used to compare in vitro antitumor activity of the compounds.
(§4) Method for Calculating the Inhibition Rate: Inhibition rate (%)=(OD value of control group−OD value of drug group)/OD value of control group×100%

A431 = assay: as above; assay type: cell-based; conditions: 72 h incubation, Logit method
Method: as §1, §2, §3, §4

[2] = xenografts in nude mice, PO QD × 17, 146.7 mg/kg

IC50 (MCF-7; Homo sapiens, MCF7, MCF-7 cells)	IC50 (A431; Homo sapiens, A-431, A431 cells)	IC50 (MCF-7; MCF-7 cells)	IC50 (A431; A431 cells)	Compound	Initial Tumor Volume (mm^3) D0 [1]	Final Tumor Inhibition Rate (%) D16 [1]	% T/C D16 [1]	Relative Tumor Volume D16 [1]	Final Tumor Volume (mm^3) D16 [1]	The Recession/Group [1]	inhibition of growth of human lung cancer Calu-3 (in words) ([1]; xenografts in nude mice)	fraction of the tumors in mice caused to shrink [1, 2]	number of mice with tumor shrinking more than 50% in volume [1, 2]
6.67 µM	0.734 µM			CN(C)[C@H](CS(C)(=O)=O)c1ccc(-c2ccc3ncnc(Nc4ccc(OCc5cccc(F)c5)c(Cl)c4)c3c2)o1 [Compound 97, (S)—N-(4-(3-fluorobenzyloxy)-3-chlorophenyl)-6-(5-(1-(N,N-dimethyl-amino)-2-(methylsulfonyl)ethyl)furan-2-yl)quinazolin-4-amine]	291.2 mm^3	44%	56%	1.9	525.4 mm^3	0	inhibited the growth of human lung cancer Calu-3 significantly		
		5.67 µM	0.768 µM	CN(C)[C@@H](CS(C)(=O)=O)c1ccc(-c2ccc3ncnc(Nc4ccc(OCc5cccc(F)c5)c(Cl)c4)c3c2)o1 [Compound 110, (R)—N-(4-(3-fluorobenzyl-oxy)-3-chlorophenyl)-6-(5-(1-(N,N-dimethyl-amino)-2-(methylsulfonyl)ethyl)-2-yl)quinazolin-4-amine]	249.1 mm^3	77%	23%	0.8	187.4 mm^3	1	inhibited the growth of human lung cancer Calu-3 significantly	⅚	one
